Assay [1] addresses T1, Progesterone receptor (Homo sapiens, UniProt P06401).
T1 sequence (P06401 whole entry): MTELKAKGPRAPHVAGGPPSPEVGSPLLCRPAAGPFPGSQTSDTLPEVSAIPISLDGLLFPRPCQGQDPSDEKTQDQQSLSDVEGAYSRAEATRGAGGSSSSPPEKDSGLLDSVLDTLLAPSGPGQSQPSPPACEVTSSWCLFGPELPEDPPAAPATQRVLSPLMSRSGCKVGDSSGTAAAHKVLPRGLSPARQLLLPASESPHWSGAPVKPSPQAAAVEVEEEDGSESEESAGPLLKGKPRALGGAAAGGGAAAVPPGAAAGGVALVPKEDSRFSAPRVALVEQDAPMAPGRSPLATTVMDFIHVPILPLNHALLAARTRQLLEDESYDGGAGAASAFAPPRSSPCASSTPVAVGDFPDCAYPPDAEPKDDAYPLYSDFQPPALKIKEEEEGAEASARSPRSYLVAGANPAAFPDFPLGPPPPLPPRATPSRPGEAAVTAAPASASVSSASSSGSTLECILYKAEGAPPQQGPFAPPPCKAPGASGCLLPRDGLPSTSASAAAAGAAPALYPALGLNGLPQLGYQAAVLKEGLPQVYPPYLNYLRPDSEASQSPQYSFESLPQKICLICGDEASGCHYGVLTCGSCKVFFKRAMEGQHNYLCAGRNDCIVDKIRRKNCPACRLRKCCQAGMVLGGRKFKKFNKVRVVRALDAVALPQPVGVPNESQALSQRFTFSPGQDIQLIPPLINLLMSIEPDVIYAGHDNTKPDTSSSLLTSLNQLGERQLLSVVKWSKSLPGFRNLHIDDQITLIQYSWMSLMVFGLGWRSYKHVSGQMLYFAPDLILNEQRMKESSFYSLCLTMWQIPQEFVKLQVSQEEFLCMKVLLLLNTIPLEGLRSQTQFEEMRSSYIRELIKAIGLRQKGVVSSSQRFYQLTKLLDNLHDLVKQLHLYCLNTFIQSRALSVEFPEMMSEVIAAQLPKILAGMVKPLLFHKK
The class given is functional.

Assay [2] deals with T2, Glucocorticoid receptor (Homo sapiens, UniProt P04150).
T2 sequence (P04150 whole entry): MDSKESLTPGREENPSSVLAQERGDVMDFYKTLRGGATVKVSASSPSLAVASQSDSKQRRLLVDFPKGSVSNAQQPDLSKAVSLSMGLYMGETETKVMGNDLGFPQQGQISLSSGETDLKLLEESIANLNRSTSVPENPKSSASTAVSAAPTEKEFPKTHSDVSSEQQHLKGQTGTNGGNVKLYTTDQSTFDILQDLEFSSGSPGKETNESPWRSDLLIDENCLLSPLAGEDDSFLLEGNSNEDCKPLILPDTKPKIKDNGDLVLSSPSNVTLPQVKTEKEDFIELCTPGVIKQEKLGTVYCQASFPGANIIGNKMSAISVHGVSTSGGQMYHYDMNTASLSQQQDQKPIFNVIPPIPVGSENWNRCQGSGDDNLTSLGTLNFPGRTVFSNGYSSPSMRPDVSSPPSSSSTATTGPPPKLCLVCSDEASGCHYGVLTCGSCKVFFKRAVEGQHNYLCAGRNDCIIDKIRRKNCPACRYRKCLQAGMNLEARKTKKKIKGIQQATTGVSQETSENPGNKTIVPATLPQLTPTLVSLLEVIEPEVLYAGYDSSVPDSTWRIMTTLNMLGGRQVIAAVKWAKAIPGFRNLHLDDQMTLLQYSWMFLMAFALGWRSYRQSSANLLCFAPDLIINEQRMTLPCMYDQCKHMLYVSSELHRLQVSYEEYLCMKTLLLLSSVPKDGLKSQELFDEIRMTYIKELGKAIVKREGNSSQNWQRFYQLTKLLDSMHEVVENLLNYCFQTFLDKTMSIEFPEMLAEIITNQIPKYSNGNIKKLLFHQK

Assay [3] concerns the target Histamine H2 receptor (Homo sapiens, UniProt P25021). The class given is functional, cell-based.
The target of assay [4] is Glutamate receptor ionotropic, NMDA 1 (Rattus norvegicus, UniProt P35439).
Assay [5] concerns the target T3, Muscarinic acetylcholine receptor M1 (Homo sapiens, UniProt P11229).
T3 sequence (P11229 whole entry): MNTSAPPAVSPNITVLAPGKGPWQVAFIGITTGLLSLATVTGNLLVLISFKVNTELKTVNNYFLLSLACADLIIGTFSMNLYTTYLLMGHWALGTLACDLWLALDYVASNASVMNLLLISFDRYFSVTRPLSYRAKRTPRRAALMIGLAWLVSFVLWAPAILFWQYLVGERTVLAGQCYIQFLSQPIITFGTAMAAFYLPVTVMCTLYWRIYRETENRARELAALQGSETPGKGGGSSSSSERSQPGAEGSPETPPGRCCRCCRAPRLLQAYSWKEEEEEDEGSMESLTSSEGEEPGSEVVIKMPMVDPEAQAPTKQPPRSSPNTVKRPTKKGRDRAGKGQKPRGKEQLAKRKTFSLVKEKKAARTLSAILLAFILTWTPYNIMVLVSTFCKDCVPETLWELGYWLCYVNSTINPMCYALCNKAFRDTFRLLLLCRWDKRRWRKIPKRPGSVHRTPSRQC
The class given is functional.

For assay [6], the target named is T4, 5-hydroxytryptamine receptor 1A (Homo sapiens, UniProt P08908).
T4 sequence (P08908 whole entry): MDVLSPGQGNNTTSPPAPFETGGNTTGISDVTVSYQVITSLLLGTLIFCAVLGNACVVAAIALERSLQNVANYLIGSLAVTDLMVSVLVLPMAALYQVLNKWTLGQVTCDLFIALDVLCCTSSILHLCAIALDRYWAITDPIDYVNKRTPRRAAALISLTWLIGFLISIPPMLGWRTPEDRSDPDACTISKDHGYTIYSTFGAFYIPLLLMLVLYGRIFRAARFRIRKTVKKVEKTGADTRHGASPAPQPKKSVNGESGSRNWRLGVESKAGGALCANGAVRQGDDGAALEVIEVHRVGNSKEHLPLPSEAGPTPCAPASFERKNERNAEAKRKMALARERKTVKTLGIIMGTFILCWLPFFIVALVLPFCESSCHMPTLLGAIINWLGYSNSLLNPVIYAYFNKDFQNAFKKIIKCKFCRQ
Format: functional, cell-based.

The values below come from ChEMBL document CHEMBL5291721, “A preclinical secondary pharmacology resource illuminates target-adverse drug reaction associations of marketed drugs” (Nat Commun, 2023).
Note: assay procedure not described here.

Sequence of Histamine H2 receptor (P25021 whole entry): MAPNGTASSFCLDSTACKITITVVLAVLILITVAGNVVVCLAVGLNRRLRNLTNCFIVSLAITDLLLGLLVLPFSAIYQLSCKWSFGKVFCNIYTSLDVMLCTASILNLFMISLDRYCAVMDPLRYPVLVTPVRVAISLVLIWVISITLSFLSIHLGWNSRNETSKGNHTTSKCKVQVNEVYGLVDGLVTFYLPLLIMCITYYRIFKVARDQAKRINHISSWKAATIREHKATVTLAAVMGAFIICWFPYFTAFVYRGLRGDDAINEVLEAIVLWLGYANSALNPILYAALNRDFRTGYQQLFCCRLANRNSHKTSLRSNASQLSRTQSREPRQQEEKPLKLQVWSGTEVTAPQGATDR

On to `O=C(C[S+]([O-])C(c1ccccc1)c1ccccc1)NO` (stereo unspecified), for which the AC50 in assay [1], in assay [2], in assay [3], in assay [4], in assay [5] and in assay [6] was over 30 µM in each case.
With `C=C1CC[C@@]2(O)[C@H]3Cc4ccc(O)c5c4[C@@]2(CCN3CC2CC2)[C@H]1O5`, the AC50 in assay [1], in assay [2], in assay [3], in assay [4], in assay [5] and in assay [6] was over 30 µM in each case.
With `Nc1ncnc2c1ncn2[C@@H]1O[C@H](COP(=O)(O)O)[C@@H](O)[C@H]1O` [ADENOSINE PHOSPHATE], the AC50 in assay [1], in assay [2], in assay [3], in assay [4], in assay [5] and in assay [6] was over 30 µM in each case.
On to `CCC(C(=O)O)c1ccc(CC(C)C)cc1` (stereo unspecified) [BUTIBUFEN], for which the AC50 in assay [1], in assay [2], in assay [3], in assay [4], in assay [5] and in assay [6] was over 30 µM throughout.
Regarding `CCOC(=O)[C@H](CCc1ccccc1)N[C@H]1CCCN2CCC[C@@H](C(=O)O)N2C1=O` [CILAZAPRIL], the AC50 in assay [1], in assay [2], in assay [3], in assay [4], in assay [5] and in assay [6] was over 30 µM each time.
For the molecule `CN1C(=O)CC(=O)N(c2ccccc2)c2cc(Cl)ccc21` [CLOBAZAM], the AC50 in assay [1], in assay [2], in assay [3], in assay [4], in assay [5] and in assay [6] was over 10 µM throughout.
Consider `CCCCOc1cc(C(=O)NCCN(CC)CC)c2ccccc2n1` [DIBUCAINE], for which the AC50 in assay [1], in assay [2], in assay [3], in assay [4], in assay [5] and in assay [6] was over 10 µM in each case.
Regarding `CCCCCCCCCCCC[N+](C)(C)CCOc1ccccc1` [DOMIPHEN], the AC50 (usually the concentration at which the activity in the assay is half-maximal) in assay [1] is 4.5 µM; in assay [2], 18 µM; in assay [3], over 30 µM; in assay [4] it was over 30 µM; in assay [5], 8.9 µM; in assay [6], 22 µM.
Consider `C#CC1(OC(N)=O)CCCCC1` [ETHINAMATE], for which the AC50 in assay [1], in assay [2], in assay [3], in assay [4], in assay [5] and in assay [6] was over 10 µM throughout.
On to `O=C1CN=C(c2ccccc2)c2cc(Cl)ccc2N1CC(F)(F)F` [HALAZEPAM], for which the AC50 in assay [1], in assay [2], in assay [3], in assay [4], in assay [5] and in assay [6] was over 30 µM in each case.
On to `CCC1(C2=CCCCCC2)C(=O)NC(=O)NC1=O` [HEPTABARBITAL], for which the AC50 in assay [1], in assay [2], in assay [3], in assay [4], in assay [5] and in assay [6] was over 10 µM in each case.
For the molecule `CCCCCN(C)CCC(O)(P(=O)(O)O)P(=O)(O)O` [IBANDRONIC ACID], the AC50 in assay [1], in assay [2], in assay [3], in assay [4], in assay [5] and in assay [6] was over 30 µM throughout.
In the case of `C1=Cc2cccc(OCC3CNCCO3)c2C1` (stereo unspecified) [INDELOXAZINE], the AC50 in assay [1], in assay [2], in assay [3], in assay [4], in assay [5] and in assay [6] was over 30 µM throughout.
With `O=C(CCCCC(=O)Nc1c(I)cc(I)c(C(=O)O)c1I)Nc1c(I)cc(I)c(C(=O)O)c1I` [IODIPAMIDE], the AC50 in assay [1] was over 10 µM; in assay [2] it was over 10 µM; in assay [3], over 30 µM; in assay [4], over 10 µM; in assay [5], over 10 µM; in assay [6], over 10 µM.
Turning to `CC(C)[N+](C)(CCC(C(N)=O)(c1ccccc1)c1ccccc1)C(C)C` [ISOPROPAMIDE], the AC50 in assay [1] is over 10 µM; in assay [2], over 10 µM; in assay [3], over 10 µM; in assay [4] it was over 10 µM; in assay [5] it was 0.013 µM; in assay [6] it was over 10 µM.
As for `COC(=O)C1=C(C)NC(C)=C(C(=O)OC(C)C)C1c1cccc2nonc12` (stereo unspecified) [ISRADIPINE], the AC50 in assay [1] was over 30 µM; in assay [2], 15.1 µM; in assay [3], over 30 µM; in assay [4], over 10 µM; in assay [5], over 30 µM; in assay [6] it was over 10 µM.
`CN1CC[C@]23CCCC[C@H]2[C@H]1Cc1ccc(O)cc13` [LEVORPHANOL]: the AC50 in assay [1] is over 10 µM; in assay [3], over 30 µM; in assay [4] it was 0.652 µM; in assay [5] it was over 30 µM; in assay [6], over 10 µM.
As for `Cc1nc2ccc(CN(C)c3ccc(C(=O)N[C@@H](CCC(=O)O)C(=O)O)s3)cc2c(=O)[nH]1` [RALTITREXED], the AC50 in assay [1], in assay [3], in assay [4], in assay [5] and in assay [6] was over 30 µM each time.
Consider `C#CCN[C@@H]1CCc2ccccc21` [RASAGILINE], for which the AC50 in assay [1], in assay [3], in assay [4], in assay [5] and in assay [6] was over 30 µM throughout.
Consider `CN1CCN(C(=O)OC2c3nccnc3C(=O)N2c2ccc(Cl)cn2)CC1` (stereo unspecified) [ZOPICLONE], for which the AC50 in assay [1] is over 30 µM; in assay [3], over 10 µM; in assay [4], over 10 µM; in assay [5], over 30 µM; in assay [6], over 10 µM.
